Some test systems named below: ACHN renal; DLD-1 colon; DMS 114 small cell lung; HCT-15 colon; HOP-18 NSCLC; KM20L2 colon; LXFL 529 NSCLC; M19-MEL melanoma; MOLT-4 leukemia; NCI-H23 lung; RPMI-8226 leukemia; RXF-631 renal; SNB-78 CNS; DMS 273 small cell lung; OVCAR-5 ovarian; SF-539 CNS; XF 498 CNS.
What all share (assay): growth of human tumour cells (NCI), 48 h

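1) Cells in 96-well plates. 2) Compound, 48 h, 5 concentrations. 3) Linear interpolation between surrounding doses. 4) Unreached endpoint = highest concentration. At the TGI there is no net growth.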

These results are taken from PubChem BioAssay (NCI).

As for `O=c1cc(-c2ccccc2)oc2cc(OCCSCCCCCCCCCCSCCOc3ccc4c(=O)cc(-c5ccccc5)oc4c3)ccc12`, the TGI in the test with ACHN renal, in the test on DLD-1 colon, with DMS 114 small cell lung, in the test with HCT-15 colon, with HOP-18 NSCLC and in the test on KM20L2 colon was over 100 µM each time. In addition, the TGI with LXFL 529 NSCLC, in the test on M19-MEL melanoma, with MOLT-4 leukemia, in the test with NCI-H23 lung, in the test with RPMI-8226 leukemia and in the test on RXF-631 renal was over 100 µM in each case. The molecule further gave a TGI with SNB-78 CNS of over 100 µM.
As for `O=C(O)Cn1c(=O)[nH]c(=O)c2c1ncn2Cc1ccccc1`, the TGI in the test on ACHN renal, with DLD-1 colon, in the test on DMS 114 small cell lung, in the test with DMS 273 small cell lung, in the test on HCT-15 colon and in the test with KM20L2 colon was over 100 µM each time. Moreover, the TGI with LXFL 529 NSCLC, in the test on M19-MEL melanoma, in the test with MOLT-4 leukemia, in the test on NCI-H23 lung, in the test with OVCAR-5 ovarian and in the test with RPMI-8226 leukemia was over 100 µM throughout. In addition, the TGI in the test on RXF-631 renal, in the test with SF-539 CNS, in the test on SNB-78 CNS and in the test with XF 498 CNS was over 100 µM each time.
In the case of `COc1ccc(/C(=N/NC(N)=O)C(c2ccc(OC)cc2)C2C(=O)Oc3ccccc32)cc1` (stereo unspecified), the TGI in the test with DLD-1 colon, in the test with DMS 114 small cell lung, in the test with DMS 273 small cell lung, in the test on HCT-15 colon, in the test on KM20L2 colon and in the test on LXFL 529 NSCLC was over 100 µM in each case. Moreover, the TGI in the test with M19-MEL melanoma, with MOLT-4 leukemia, in the test on NCI-H23 lung, in the test on OVCAR-5 ovarian, in the test on RPMI-8226 leukemia and in the test with RXF-631 renal was over 100 µM each time. Also, the TGI with SF-539 CNS, with SNB-78 CNS and in the test with XF 498 CNS was over 100 µM throughout.
Take `CN(C)c1ccc(/C=N\N2C(=O)c3ccccc3C2=O)cc1`: the TGI in the test on ACHN renal, in the test on DLD-1 colon, with DMS 114 small cell lung, in the test on DMS 273 small cell lung, with HCT-15 colon and with HOP-18 NSCLC was over 100 µM in each case. The TGI in the test with KM20L2 colon, in the test with LXFL 529 NSCLC, in the test on M19-MEL melanoma, in the test on MOLT-4 leukemia, in the test on NCI-H23 lung and in the test on OVCAR-5 ovarian was over 100 µM each time. Moreover, the TGI in the test with RPMI-8226 leukemia, in the test on SF-539 CNS, with SNB-78 CNS and with XF 498 CNS was over 100 µM throughout.
Turning to `COc1ccc(C(=O)/C=C/c2ccc(OCC(=O)N3CCN(c4ccccc4)CC3)cc2)cc1`, the TGI in the test with ACHN renal, in the test on DLD-1 colon, with DMS 114 small cell lung, in the test with DMS 273 small cell lung, in the test on HCT-15 colon and in the test on HOP-18 NSCLC was over 100 µM in each case. For the same molecule, the TGI in the test with KM20L2 colon, in the test on LXFL 529 NSCLC, in the test on M19-MEL melanoma, in the test with MOLT-4 leukemia, in the test with NCI-H23 lung and with OVCAR-5 ovarian was over 100 µM each time. Further, the TGI is over 77.8 µM in the test with RPMI-8226 leukemia, 51.7 µM in the test with SF-539 CNS, 54.8 µM with SNB-78 CNS and over 93.9 µM with XF 498 CNS.
With `Cc1ccc(O)c(C(=O)CCCC(=O)c2cc(C)ccc2O)c1`, the TGI with ACHN renal, with DLD-1 colon, with DMS 114 small cell lung, in the test with DMS 273 small cell lung, in the test with HCT-15 colon and with HOP-18 NSCLC was over 100 µM each time. Besides, the TGI in the test with KM20L2 colon, with LXFL 529 NSCLC, in the test on M19-MEL melanoma, in the test on MOLT-4 leukemia, in the test with NCI-H23 lung and with OVCAR-5 ovarian was over 100 µM throughout. Besides, the TGI with RPMI-8226 leukemia, in the test on SF-539 CNS, with SNB-78 CNS and with XF 498 CNS was over 100 µM in each case.
`Cc1nc(Nc2ccc([N+](=O)[O-])cc2)sc1C(/C=C/c1ccc(N(C)C)cc1)=N/NC(=O)c1ccccc1`: the TGI in the test with ACHN renal, in the test with DLD-1 colon, in the test on DMS 114 small cell lung, in the test on HCT-15 colon, with HOP-18 NSCLC and with KM20L2 colon was over 100 µM in each case. In addition, the TGI in the test with LXFL 529 NSCLC, in the test with M19-MEL melanoma, in the test with MOLT-4 leukemia, in the test on NCI-H23 lung, with OVCAR-5 ovarian and in the test on RXF-631 renal was over 100 µM in each case. Moreover, the TGI in the test on SF-539 CNS, in the test with SNB-78 CNS and with XF 498 CNS was over 100 µM each time.
Consider `N#CC1(C=O)c2ccccc2C=CN1C(=O)c1ccccc1` (stereo unspecified), for which the TGI with ACHN renal was over 100 µM; in the test with DMS 114 small cell lung, 49 µM; in the test on DMS 273 small cell lung it was over 100 µM; in the test on HCT-15 colon, over 100 µM; with HOP-18 NSCLC, over 100 µM; in the test with KM20L2 colon it was over 100 µM. Further, the TGI with LXFL 529 NSCLC was over 100 µM; in the test with M19-MEL melanoma, over 100 µM; with MOLT-4 leukemia it was 44.9 µM; in the test with NCI-H23 lung, over 100 µM; in the test on RXF-631 renal, over 100 µM; with SNB-78 CNS, over 100 µM. This molecule returned a TGI in the test with XF 498 CNS of 69.6 µM.
Regarding `COC(=O)[C@@]12OC[C@]34C([C@@H](O)C1O)[C@@]1(C)CC(=O)C(OC(=O)/C=C(/c5ccccc5)C(F)(F)F)=C(C)C1C[C@H]3OC(=O)[C@H](O)[C@H]42` (stereo partly specified), the TGI in the test with ACHN renal was over 50 µM; in the test on DLD-1 colon, 31.9 µM; with DMS 114 small cell lung, 22.3 µM; with DMS 273 small cell lung, 18 µM; in the test with HCT-15 colon, over 50 µM; in the test with HOP-18 NSCLC, over 50 µM. For the same molecule, the TGI is 36.6 µM in the test on KM20L2 colon; over 50 µM in the test with LXFL 529 NSCLC; over 50 µM in the test on M19-MEL melanoma; 26.9 µM with MOLT-4 leukemia; 19.7 µM in the test with NCI-H23 lung; over 50 µM with OVCAR-5 ovarian. For the same molecule, the TGI in the test on RPMI-8226 leukemia is 13.9 µM; in the test on SF-539 CNS it was 13 µM; in the test on SNB-78 CNS, over 50 µM; with XF 498 CNS it was 33 µM.
Take `COC(=O)c1ccc(Cc2ccc(C(=O)OC)o2)o1`: the TGI in the test with ACHN renal, in the test with DLD-1 colon, with DMS 273 small cell lung, in the test with HCT-15 colon, in the test on HOP-18 NSCLC and in the test with KM20L2 colon was over 378 µM in each case. The TGI with LXFL 529 NSCLC, with M19-MEL melanoma, with MOLT-4 leukemia, with NCI-H23 lung, in the test with OVCAR-5 ovarian and with RPMI-8226 leukemia was over 378 µM throughout. For the same molecule, the TGI with RXF-631 renal and in the test on SF-539 CNS was over 378 µM throughout.
In the case of `CC(C)C(/C=C/c1ccc(Br)cc1)=N\NC(N)=O`, the TGI in the test with ACHN renal, in the test on DLD-1 colon, in the test with DMS 114 small cell lung, in the test with DMS 273 small cell lung, in the test on HCT-15 colon and in the test with KM20L2 colon was over 100 µM in each case. In addition, the TGI was over 100 µM with LXFL 529 NSCLC; 25.4 µM in the test with M19-MEL melanoma; over 100 µM in the test on MOLT-4 leukemia; over 100 µM in the test on NCI-H23 lung; over 100 µM with OVCAR-5 ovarian; over 100 µM with RPMI-8226 leukemia. In addition, the TGI with SF-539 CNS, with SNB-78 CNS and in the test with XF 498 CNS was over 100 µM in each case.
For `O=C(NO)C(=O)Nc1ccc(Cl)cc1[N+](=O)[O-]`, the TGI with ACHN renal, with DLD-1 colon, in the test on DMS 114 small cell lung, in the test on DMS 273 small cell lung, in the test with HCT-15 colon and in the test on HOP-18 NSCLC was over 100 µM each time. The TGI in the test with KM20L2 colon, with LXFL 529 NSCLC, with M19-MEL melanoma, with MOLT-4 leukemia, in the test on NCI-H23 lung and with OVCAR-5 ovarian was over 100 µM throughout. The TGI with RPMI-8226 leukemia, in the test on RXF-631 renal, with SF-539 CNS and with SNB-78 CNS was over 100 µM throughout.
Consider `Cn1c2cc(O)cc(O)c2c(=O)c2c([N+](=O)[O-])cccc21`, for which the TGI in the test with ACHN renal, in the test on DLD-1 colon, in the test on DMS 114 small cell lung, in the test with DMS 273 small cell lung, with HCT-15 colon and with HOP-18 NSCLC was over 100 µM in each case. The TGI with KM20L2 colon, with LXFL 529 NSCLC, in the test on MOLT-4 leukemia, in the test with NCI-H23 lung, in the test on OVCAR-5 ovarian and with RPMI-8226 leukemia was over 100 µM throughout. For the same molecule, the TGI with RXF-631 renal, with SF-539 CNS and in the test on SNB-78 CNS was over 100 µM throughout.
For `COCCOCC(=O)N(CCn1ccc(NC(c2ccccc2)(c2ccccc2)c2ccccc2)nc1=O)CCn1cnc2nc(N)[nH]c(=O)c21`, the TGI in the test with ACHN renal, in the test with DLD-1 colon, in the test on DMS 114 small cell lung, in the test with DMS 273 small cell lung, with HCT-15 colon and in the test with HOP-18 NSCLC was over 100 µM each time. Further, the TGI in the test on KM20L2 colon, in the test with LXFL 529 NSCLC, in the test with MOLT-4 leukemia, in the test on NCI-H23 lung, with OVCAR-5 ovarian and in the test with RPMI-8226 leukemia was over 100 µM throughout. The TGI with RXF-631 renal, in the test with SF-539 CNS and with SNB-78 CNS was over 100 µM throughout.
